Laboratory results from PubChem BioAssay AID1259407 (Chemical Carcinogenesis Research Information System (CCRIS), 2018).
The source made the active and inactive calls. No rule for the calls is given here.

Test system: CCRIS mutagenicity, Ames/micronucleus/aberration tests
Assay: CCRIS mutagenicity studies
[1] = Test System: AMES SALMONELLA TYPHIMURIUM, Strain/Indicator: TA98, Metabolic Activation: NONE, Method: STANDARD PLATE
[2] = Test System: AMES SALMONELLA TYPHIMURIUM, Strain/Indicator: TA100, Metabolic Activation: NONE, Method: STANDARD PLATE

SMILES: O=[N+]([O-])c1ccc2oc3ccccc3c2c1
- mutagenic call (Test System: AMES SALMONELLA TYPHIMURIUM, Strain/Indicator: TA98(1,8-DNP6), Metabolic Activation: NONE, Method: PREINCUBATION): active; positive
- mutagenic call (Test System: AMES SALMONELLA TYPHIMURIUM, Strain/Indicator: TA98(1,8-DNP6), Metabolic Activation: NONE, Method: SUSPENSION): active; positive
- mutagenic call (Test System: AMES SALMONELLA TYPHIMURIUM, Strain/Indicator: TA98(1,8-DNP6), Metabolic Activation: RAT, LIVER, S-9, PCB (5%), Method: PREINCUBATION): active; positive
- mutagenic call (Test System: AMES SALMONELLA TYPHIMURIUM, Strain/Indicator: TA98(NR), Metabolic Activation: NONE, Method: PREINCUBATION): active; positive
- mutagenic call (Test System: AMES SALMONELLA TYPHIMURIUM, Strain/Indicator: TA98(NR), Metabolic Activation: NONE, Method: SUSPENSION): inactive; negative
- mutagenic call (Test System: AMES SALMONELLA TYPHIMURIUM, Strain/Indicator: TA98(NR), Metabolic Activation: RAT, LIVER, S-9 (10%), Method: PREINCUBATION): active; positive
- mutagenic call (Test System: AMES SALMONELLA TYPHIMURIUM, Strain/Indicator: TA98(NR), Metabolic Activation: RAT, LIVER, S-9, 3-METHYLCHOLANTHRENE (10%), Method: PREINCUBATION): active; positive
- mutagenic call (Test System: AMES SALMONELLA TYPHIMURIUM, Strain/Indicator: TA98(NR), Metabolic Activation: RAT, LIVER, S-9, BETA-NAPHTHOFLAVONE (10%), Method: PREINCUBATION): active; positive
- mutagenic call (Test System: AMES SALMONELLA TYPHIMURIUM, Strain/Indicator: TA98(NR), Metabolic Activation: RAT, LIVER, S-9, PCB (5%), Method: PREINCUBATION): active; positive
- mutagenic call (Test System: AMES SALMONELLA TYPHIMURIUM, Strain/Indicator: TA98(NR), Metabolic Activation: RAT, LIVER, S-9, PCB (10%), Method: PREINCUBATION): active; positive
- mutagenic call (Test System: AMES SALMONELLA TYPHIMURIUM, Strain/Indicator: TA98(NR), Metabolic Activation: RAT, LIVER, S-9, PHENOBARBITAL (10%), Method: PREINCUBATION): active; positive
- mutagenic call (Test System: AMES SALMONELLA TYPHIMURIUM, Strain/Indicator: TA98, Metabolic Activation: NONE, Method: PREINCUBATION): active; positive
- mutagenic call (Test System: AMES SALMONELLA TYPHIMURIUM, Strain/Indicator: TA98, Metabolic Activation: NONE, Method: SUSPENSION): active; positive
- mutagenic call (Test System: AMES SALMONELLA TYPHIMURIUM, Strain/Indicator: TA98, Metabolic Activation: RAT, LIVER, S-9, PCB (5%), Method: PREINCUBATION): active; positive
- mutagenic call (Test System: AMES SALMONELLA TYPHIMURIUM, Strain/Indicator: TA98, Metabolic Activation: RAT, LIVER, S-9, PCB, Method: SUSPENSION): active; positive
- mutagenic call (Test System: AMES SALMONELLA TYPHIMURIUM, Strain/Indicator: TA100, Metabolic Activation: NONE, Method: PREINCUBATION): inactive; negative
- mutagenic call (Test System: AMES SALMONELLA TYPHIMURIUM, Strain/Indicator: TA100, Metabolic Activation: NONE, Method: SUSPENSION): inactive; negative
- mutagenic call (Test System: AMES SALMONELLA TYPHIMURIUM, Strain/Indicator: TA100, Metabolic Activation: RAT, LIVER, S-9, PCB (5%), Method: PREINCUBATION): inactive; negative
- mutagenic call (Test System: AMES SALMONELLA TYPHIMURIUM, Strain/Indicator: TA100, Metabolic Activation: RAT, LIVER, S-9, PCB, Method: SUSPENSION): inactive; negative

SMILES: O=[N+]([O-])c1ccc2c3c(cccc13)C=C2
- mutagenic call [1]: active; positive

SMILES: Cc1ccc(N=Nc2c(O)ccc3ccccc23)c(C)c1
- mutagenic call (Test System: AMES SALMONELLA TYPHIMURIUM, Strain/Indicator: TA98, Metabolic Activation: HAMSTER, LIVER, S-9, AROCLOR 1254 (5,20%), Method: PREINCUBATION): active; positive
- mutagenic call (Test System: AMES SALMONELLA TYPHIMURIUM, Strain/Indicator: TA98, Metabolic Activation: HAMSTER, LIVER, S-9, AROCLOR 1254, Method: STANDARD PLATE): active; positive
- mutagenic call (Test System: AMES SALMONELLA TYPHIMURIUM, Strain/Indicator: TA98, Metabolic Activation: HAMSTER, LIVER, S-9, Method: PREINCUBATION (PRIVAL METHOD)): active; positive
- mutagenic call [1]: inactive; negative
- mutagenic call (Test System: AMES SALMONELLA TYPHIMURIUM, Strain/Indicator: TA98, Metabolic Activation: RAT, BLADDER, S-9, PCB, Method: FLUCTUATION TEST): inactive; negative
- mutagenic call (Test System: AMES SALMONELLA TYPHIMURIUM, Strain/Indicator: TA98, Metabolic Activation: RAT, LIVER, S-9, AROCLOR 1254, HAMSTER, LIVER, S-9, AROCLOR 1254, Method: STANDARD PLATE): active; positive
- mutagenic call (Test System: AMES SALMONELLA TYPHIMURIUM, Strain/Indicator: TA98, Metabolic Activation: RAT, LIVER, S-9, Method: STANDARD PLATE): inactive; negative
- mutagenic call (Test System: AMES SALMONELLA TYPHIMURIUM, Strain/Indicator: TA100, Metabolic Activation: HAMSTER, LIVER, S-9, Method: PREINCUBATION (PRIVAL METHOD)): active; positive
- mutagenic call [2]: inactive; negative
- mutagenic call (Test System: AMES SALMONELLA TYPHIMURIUM, Strain/Indicator: TA100, Metabolic Activation: RAT, BLADDER, S-9, PCB, Method: FLUCTUATION TEST): inactive; negative
- mutagenic call (Test System: AMES SALMONELLA TYPHIMURIUM, Strain/Indicator: TA100, Metabolic Activation: RAT, LIVER, S-9, Method: STANDARD PLATE): inactive; negative
- mutagenic call (Test System: AMES SALMONELLA TYPHIMURIUM, Strain/Indicator: TA1538, Metabolic Activation: RAT, LIVER, S-9, AROCLOR 1254, HAMSTER, LIVER, S-9, AROCLOR 1254, Method: STANDARD PLATE): active; positive
- mutagenic call (Test System: Mouse lymphoma, Strain/Indicator: L5178Y (tk+/tk-), Metabolic Activation: None, Method: Suspension/plate): inactive; negative
- mutagenic call (Test System: Mouse lymphoma, Strain/Indicator: L5178Y (tk+/tk-), Metabolic Activation: Rat, Liver, S-9, Aroclor 1254, Method: Suspension/plate): inactive; negative

SMILES: O[C@@H]1[C@H]2O[C@H]2c2cc3c(ccc4ccccc43)cc2[C@H]1O
- mutagenic call (Test System: CHINESE HAMSTER V-79, Strain/Indicator: V-79/8-AZAGUANINE, Metabolic Activation: NONE, Method: STANDARD PLATE): active; positive

SMILES: CN(C)Nc1ccn([C@@H]2O[C@H](CO)[C@@H](O)[C@H]2O)c(=O)n1
- mutagenic call (Test System: CHINESE HAMSTER V-79, Strain/Indicator: V-79/6-THIOGUANINE, Metabolic Activation: NONE, Method: REPLATING): inactive; negative

SMILES: Oc1ccc(O)c(-c2ccccc2)c1
- mutagenic call (Test System: CHINESE HAMSTER V-79, Strain/Indicator: V-79 (HGPRT)/6-THIOGUANINE, Metabolic Activation: NONE): inactive; negative

SMILES: c1ccc2c(c1)cnc1ccccc12
- mutagenic call (Test System: AMES SALMONELLA TYPHIMURIUM, Strain/Indicator: TA98, Metabolic Activation: RAT, LIVER, S-9, PCB, Method: STANDARD PLATE): active; positive
- mutagenic call (Test System: AMES SALMONELLA TYPHIMURIUM, Strain/Indicator: TA100, Metabolic Activation: RAT, LIVER, S-9, PCB, Method: STANDARD PLATE): active; positive

SMILES: CC(C)(C)C(Br)C(=O)Nc1ccccc1 (configuration not stated)
- mutagenic call (Test System: AMES SALMONELLA TYPHIMURIUM, Strain/Indicator: TA100, Metabolic Activation: MOUSE, LIVER, S-9, AROCLOR 1254, Method: STANDARD PLATE): inactive; negative
- mutagenic call [2]: inactive; negative

SMILES: C[n+]1ccc(-c2ccccn2)cc1
- mutagenic call (Test System: AMES SALMONELLA TYPHIMURIUM, Strain/Indicator: TA97, Metabolic Activation: RAT, LIVER, S-9, PHENOBARBITAL, Method: STANDARD PLATE): inactive; negative
- mutagenic call (Test System: AMES SALMONELLA TYPHIMURIUM, Strain/Indicator: TA98, Metabolic Activation: RAT, LIVER, S-9, PHENOBARBITAL, Method: STANDARD PLATE): active; positive
- mutagenic call (Test System: AMES SALMONELLA TYPHIMURIUM, Strain/Indicator: TA100, Metabolic Activation: RAT, LIVER, S-9, PHENOBARBITAL, Method: STANDARD PLATE): inactive; negative
- mutagenic call (Test System: AMES SALMONELLA TYPHIMURIUM, Strain/Indicator: TA1535, Metabolic Activation: RAT, LIVER, S-9, PHENOBARBITAL, Method: STANDARD PLATE): inactive; negative
- mutagenic call (Test System: AMES SALMONELLA TYPHIMURIUM, Strain/Indicator: TA1537, Metabolic Activation: RAT, LIVER, S-9, PHENOBARBITAL, Method: STANDARD PLATE): inactive; negative
- mutagenic call (Test System: AMES SALMONELLA TYPHIMURIUM, Strain/Indicator: TA1538, Metabolic Activation: RAT, LIVER, S-9, PHENOBARBITAL, Method: STANDARD PLATE): inactive; negative
